Laboratory results reported in patent US9682962B2, “Pyrazolyl pyrimidinamine compound and application thereof” (SHENYANG SINOCHEM AGROCHEMICALS R&D CO., LTD., priority 2013, dated 2017).

Legend:
cucumber downy mildew = assay: Protectant activity in vivo (whole plant), cucumber downy mildew; conditions: for control effect against cucumber downy mildew(%): protectant activity
Method: (§1) The method is as followed: The whole plant is used in this test. The compound is dissolved in a proper solvent to get mother solution. The proper solvent is selected from acetone, methanol, DMF and so on according to their dissolving capability to the sample. […] The testing solution is sprayed to the host plant by a special plant sprayer. The plant is inoculated with fungus after 24 hours. According to the infecting characteristic of fungus, the plant is stored in a humidity chamber and then transferred into greenhouse after infection is finished. And the other plants are placed in greenhouse directly.

wheat powdery mildew = assay: Protectant activity in vivo (whole plant), wheat powdery mildew; conditions: protectant activity
Method: as §1

diamond back moth = assay: Bioactivity test against diamond back moth (airbrush spray); assay type: in vivo; conditions: for control against diamond back moth (mortality): after 72 h
Method: (§2) Compounds were dissolved in mixed solvent (acetone:methanol=1:1), and diluted to required concentration with water containing 0.1% of tween 80.
(§3) Diamond back moth, armyworm, peach aphid and carmine spider mite were used as targets and the method of spraying by airbrush was used for determination of insecticidal bioassays.
The method of spraying by airbrush: The cabbage leaves were made into plates of 2 cm diameter by use of punch. A test solution (0.5 ml) was sprayed by airbrush at the pressure of 0.7 kg/cm^2 to both sides of every plate. 10 Second instar larvae were put into the petri-dishes after the leaf disc air-dried and 3 replicates were set for each treatment. Then the insects were maintained in observation room (25° C., 60˜70% R.H.). Scores were conducted and mortalities were calculated after 72 h.

[1] = system: Green peach aphids (Myzus Persicae Sulzer); assay: Bioactivity test against green peach aphid (airbrush foliar spray); assay type: in vivo
Method: as §2, §3
Method: Filter papers were put in culture dishes (Diameter=6 cm), and water was dripped on filter papers for preserving moisture. Green peach aphids (Myzus Persicae Sulzer) were maintained on cabbage. Leaves (Diameter=3 cm) of approximately 15-30 aphids were put in the culture dishes. Bioactivity tests were used the method of Airbrush Foliar Spray, pressure=10 psi (0.7 kg/cm2), spray volume=0.5 mL. The studies were conducted at […] 25±1 C in incubator cabinets with 60±5% RH. Survey the survival aphids after 48 h and calculate the death rates.

cucumber anthracnose = assay: Protectant activity in vivo (whole plant), cucumber anthracnose; conditions: for control effect against cucumber anthracnose (%): protectant activity
Method: as §1

rice blast = assay: microbe, parasite or virus in culture; assay type: cell-based; conditions: for inhibition at 25 ppm: Pyricularia oryzae, read-out: inhibition rate against rice blast, 25 ppm, in vitro; for inhibition rate against rice blast: in vitro
carmine spider mite = assay: Bioactivity test against carmine spider mite (airbrush spray); assay type: in vivo; conditions: Tetranychus cinnabarinus, 72 h, after 72 hrs, read-out: control against carmine spider mite (mortality)
Method: as §2, §3
The method: shoots with two true leaves in pot were taken, the healthy adults of carmine spider mite were inoculated to the leaves. The adults were counted and then sprayed with airbrush at the pressure of 0.7 kg/cm^2 and at dose of 0.5 ml. 3 replicates were set for each treatment. And then they were maintained in standard observation room. Scores were conducted and mortalities were calculated after 72 hrs.

cucumber gray mold = assay: Fungicidal activity in vitro (96-cell culture board), cucumber gray mold; assay type: cell-based; conditions: read-out: inhibition rate against cucumber gray mold

SMILES | control effect against cucumber downy mildew(%) (cucumber downy mildew; 25 mg/L) | control effect against cucumber downy mildew(%) (cucumber downy mildew; 50 mg/L) | control effect against cucumber downy mildew(%) (cucumber downy mildew; 100 mg/L) | control effect against cucumber downy mildew(%) (cucumber downy mildew; 400 mg/L) | control effect against wheat powdery mildew (%) (wheat powdery mildew; 6.25 mg/L) | control effect against wheat powdery mildew (%) (wheat powdery mildew; 25 mg/L) | control effect against wheat powdery mildew (%) (wheat powdery mildew; 100 mg/L) | control effect against wheat powdery mildew (%) (wheat powdery mildew; 400 mg/L) | Insecticidal activity against diamond back moth (%) (diamond back moth; 600 mg/L) | Insecticidal activity against peach aphid (%) ([1]; 100 mg/L) | Insecticidal activity against peach aphid (%) ([1]; 600 mg/L) | control effect against cucumber anthracnose (%) (cucumber anthracnose; 400 mg/L) | further results
CCc1ncnc(NCc2cnn(-c3ccccc3)c2C)c1Cl [CK1, reference compound] | 20 | 95 | 100 | 100 | 0 | 40 | 60 | 100 | 43 | 0 | 91 | – | Insecticidal activity against peach aphid (%) ([1]; 10 mg/L): 0%
Cc1ncnc(NCCc2cnn(-c3ccc(OC(F)(F)F)cc3)c2)c1Cl [Compound 318] | 90 | 98 | 100 | 100 | 90 | 100 | 100 | 100 | – | – | – | 100 | control effect against cucumber anthracnose (%) (cucumber anthracnose; 0.78 mg/L): 98%; control effect against cucumber anthracnose (%) (cucumber anthracnose; 1.56 mg/L): 98%; control effect against cucumber anthracnose (%) (cucumber anthracnose; 3.13 mg/L): 100%; control effect against cucumber anthracnose (%) (cucumber anthracnose; 6.25 mg/L): 100%; control effect against cucumber anthracnose (%) (cucumber anthracnose; 25 mg/L): 100%; control effect against cucumber anthracnose (%) (cucumber anthracnose; 100 mg/L): 100%; protectant activity against cucumber anthracnose in vivo (cucumber anthracnose; 0.78 ppm): 98%; protectant activity against cucumber anthracnose in vivo (cucumber anthracnose; 1.56 ppm): 98%; protectant activity against cucumber anthracnose in vivo (cucumber anthracnose; 3.13 ppm): 100%
CCc1ncnc(NCc2cnn(-c3ccccc3)c2C(F)(F)F)c1Cl [CK2, reference compound] | 20 | 75 | 100 | 100 | 0 | 20 | 50 | 100 | 20 | 55 | 100 | – | Insecticidal activity against peach aphid (%) ([1]; 10 mg/L): 0%
Cc1cc(N(C)Cc2cnn(-c3ccccc3)c2)nc(C(C)C)n1 [CK4, reference compound] | 0 | 40 | 50 | 100 | – | – | – | 0 | 0 | – | 0 | 0 | –
Cc1nc(C)c(C)c(N(C)Cc2cnn(-c3ccccc3)c2)n1 [CK3, reference compound] | 0 | 30 | 40 | 100 | – | – | – | 0 | 0 | 19 | 77 | 0 | Insecticidal activity against peach aphid (%) ([1]; 10 mg/L): 0%
FC(F)c1ncnc(NCCc2cnn(-c3ccc(C(F)(F)F)cc3)c2)c1Cl [Compound 865] | – | – | – | – | 40 | 80 | 85 | 100 | 100 | – | – | – | Insecticidal activity against diamond back moth (%) (diamond back moth; 10 mg/L): 42%; Insecticidal activity against diamond back moth (%) (diamond back moth; 100 mg/L): 50%; control against diamond back moth (mortality) (diamond back moth; 600 ppm): 100%
CC(C)(C)n1cc(CCNc2ncnc(C(F)F)c2Cl)cn1 [Compound 38] | – | – | – | – | 40 | 100 | 100 | 100 | – | 100 | 100 | 100 | control effect against cucumber anthracnose (%) (cucumber anthracnose; 6.25 mg/L): 85%; control effect against cucumber anthracnose (%) (cucumber anthracnose; 25 mg/L): 90%; control effect against cucumber anthracnose (%) (cucumber anthracnose; 100 mg/L): 95%
CCc1ncnc(NCCc2cnn(-c3ccc(Cl)cc3)c2)c1Cl.Cl [Compound 10932] | – | – | – | – | – | – | – | – | 100 | – | – | – | inhibition at 25 ppm (rice blast): > 80%; Insecticidal activity against diamond back moth (%) (diamond back moth; 10 mg/L): 25%; Insecticidal activity against diamond back moth (%) (diamond back moth; 100 mg/L): 50%; control against diamond back moth (mortality) (diamond back moth; 600 ppm): 100%; mortality at 600 ppm (carmine spider mite): > 80%
CCc1ncnc(NCCc2cnn(-c3ccc(Cl)cc3)c2)c1Cl [Compound 537] | 100 | 100 | 100 | 100 | – | – | – | – | – | – | – | – | inhibition at 25 ppm (cucumber gray mold): > 80%; control effect against cucumber downy mildew(%) (cucumber downy mildew; 12.5 mg/L): 100%; protectant activity against cucumber downy mildew in vivo (cucumber downy mildew; 6.25 ppm): 98%
Cc1nc(C)c(Cl)c(NCCc2cnn(-c3ccc(Cl)cc3Cl)c2)n1 [Compound 1373] | 100 | 100 | 100 | 100 | – | – | – | – | – | – | – | – | inhibition at 25 ppm (rice blast): > 80%; control effect against cucumber downy mildew(%) (cucumber downy mildew; 12.5 mg/L): 100%; protectant activity against cucumber downy mildew in vivo (cucumber downy mildew; 3.125 ppm): 85%; protectant activity against cucumber downy mildew in vivo (cucumber downy mildew; 6.25 ppm): 95%; mortality at 600 ppm (carmine spider mite): > 80%
FC(F)c1ncnc(NCCc2cnn(-c3ccccc3)c2)c1Cl [Compound 797] | – | – | – | – | 60 | 100 | 100 | 100 | 100 | – | – | – | Insecticidal activity against diamond back moth (%) (diamond back moth; 10 mg/L): 65%; Insecticidal activity against diamond back moth (%) (diamond back moth; 100 mg/L): 85%; control against diamond back moth (mortality) (diamond back moth; 100 ppm): 85%; control against diamond back moth (mortality) (diamond back moth; 600 ppm): 100%
CCc1ncnc(NCCc2cnn(Cc3ccc(Cl)cc3)c2)c1Cl [Compound 5657] | – | – | – | – | – | – | – | – | – | – | – | – | inhibition at 25 ppm (rice blast): > 80%; inhibition at 25 ppm (cucumber gray mold): > 80%; melting point: 109.9 °C
Cc1nc(Cl)cc(N(C)Cc2c(C)nn(-c3ccccc3)c2C)n1 [CK5, reference compound] | – | – | – | 85 | – | – | – | 0 | 0 | 22 | 100 | 0 | Insecticidal activity against peach aphid (%) ([1]; 10 mg/L): 0%
CCc1ncnc(NCCc2cnn(C(C)(C)C)c2)c1Cl [Compound 23] | – | – | – | – | – | – | 98 | 100 | – | 94 | 100 | – | mortality at 100 ppm (carmine spider mite; 100 ppm): > 80%; mortality at 600 ppm (carmine spider mite): > 80%
Cc1ncnc(NCCc2cnn(-c3ccccc3)c2)c1Cl [Compound 241] | 100 | 100 | 100 | 100 | – | – | – | – | 100 | – | – | – | inhibition rate against rice blast (rice blast; 0.1 ppm): 80%; inhibition rate against rice blast (rice blast; 0.3 ppm): 80%; inhibition rate against rice blast (rice blast; 0.9 ppm): 100%; control effect against cucumber downy mildew(%) (cucumber downy mildew; 12.5 mg/L): 65%; Insecticidal activity against diamond back moth (%) (diamond back moth; 10 mg/L): 29%; Insecticidal activity against diamond back moth (%) (diamond back moth; 100 mg/L): 71%; control against diamond back moth (mortality) (diamond back moth; 600 ppm): 100%
